These results are taken from patent US9421193B2, “Benzothiazole derivatives and a use thereof for the treatment of cancer” (Korea Institute of Radiological & Medical Sciences, priority 2014, dated 2016).

In one assay the test system is 3T3-L1 cells. The experiment in a line: PPAR-γ ligand identification test: adipogenesis induction, Oil-Red-O staining. The format is cell-based. As to conditions: 10 μM, about 48 hours. Here is the method: The ability to induce adipogenesis of the compound PB11 of Example 3 and the compound PB01 of Example 5 was tested to identify whether the compounds PB11 and PB01 had activity of PPAR-γ ligands. 3T3-L1 cells (American Type Culture Collection, Manassas, Va.) were treated with 10 μM of the compounds PB11 or PB01 to induce adipogenesis. 3T3-L1 cells without any treatment, those treated with the same concentration of ciglitazone, and those treated with the same concentration of GW9662 (Cayman, Ann Arbor, Mich.) known as PPAR-γ ligand antagonist were used as control groups. After the induction of adipogenesis for about 48 hours, a degree of adipogenesis was identified by Oil-Red-O staining.
FIG. 1 illustrates the results of imaging degrees of adipogenesis via Oil-Red-O staining after the treatment of 3T3-L1 cells with control compounds and 10 μM of the compounds PB01 or PB11 of Examples 3 and 5 for about 48 hours to induce adipogenesis.

For assay [1], the system named is non-small cell lung cancer cell strain H460. The assay can be described thus: Morphological changes, inverted microscope 200×. The format is cell-based, human. As to conditions: 50 μM, 48 hours. Here is the method: After the incubation along with 50 μM of the compounds PB01 or PB11 for 48 hours, morphological changes in the non-small cell lung cancer cell strain H460 were observed using an inverted microscope at a magnification of 200×.

The subject of assay [2] is non-small cell lung cancer cell strain A549. The experiment in a line: LDH release. The format is cell-based, human. As to conditions: 50 uM, 0 to 48 hours, compared to untreated. Here is the method:
After incubation of the non-small cell lung cancer cell strains A549 and H460 treated with the compound PB01 or PB11 for 8, 24, and 48 hours, only supernatants were recovered the culture products. The activity of lactate dehydrogenase (LDH) may be measured by detecting an amount of LDH released from the cell cytosol with a Cytotoxicity Detection Kit (available from Roche Applied Science, Indianapolis, Ind.). The amounts of LDH release induced by the compound PB01 or PB11 were calculated as a percentage amount of extracellular LDH released from the cells with respect to a total amount of LDH as a sum of the extracellular released LDH and the intracellular LDH remaining in the cells.
In general terms: LDH leaks from cells whose membrane has failed.

Assay [3] deals with non-small cell lung cancer cell strain H460. The assay can be described thus: Nuclear agglutination and segmentation, Hoechst 33342 staining. The settings on record: 50 uM, about 48 hours. The format is cell-based, human. Here is the method: (§1) To observe typical nuclear morphological changes from cell death, the cells treated with the compounds PB01 or PB11 of Examples 5 and 3 were collected, followed by removing a supernatant. After 500 μl of a fixing solution as a 1:9 mixture of a 37% formaldehyde solution and PBS buffer solution was added into the remaining cells, thoroughly mixed together, and left at room temperature for about 10 minutes for fixation. After the fixed cells were centrifuged at about 2,000 rpm for about 5 minutes, the fixing solution was removed, and the remaining cells were floated in a PBS buffer solution. After dropping the floating cells onto a slide glass, followed by cytospinning at about 1,000 rpm for about 5 minutes to fix the floating cells onto the slide glass. The slide glass with the fixed cells was treated with 2 μg/mL of a Hoechst 33342 solution (Sigma, St. Louis, Mo., U.S.A), followed by staining at room temperature for about 20 minutes. After termination of the staining, the staining reagent was washed out, and nuclear morphological changes in the cancer cells were observed by florescent microscopy (ECLIPSE E600; Nikon, Tokyo, Japan) at a 400× magnification.

Assay [4] concerns non-small cell lung cancer cell strain A549. Described as above. The format is cell-based, human. The settings on record: 50 uM, about 48 hours. Here is the method: as §1
The subject of assay [5] is various cancer cell strains (A549, H460, MCF-7, T-470, LoVo, SW480, HL-60, K562). The experiment in a line: Cancer cell growth inhibition, WST-1 cell viability. The format is cell-based, human. As to conditions: for selectivity of cell growth inhibitory effect, cancer versus non-cancer cell strains: cancer cell strains vs MRC-5 and MRC-9; for growth inhibitory effects on various cancer cell strains: concentration of 50 μM, WST-1. Here is the method:
Cancer cell growth inhibitory effects of the compounds PB01 and PB11 of Examples 5 and 3 identified as PPAR-γ ligands were evaluated. Growth inhibitory effects of the compounds PB01 and PB11 of Examples 5 and 3 on various cancer cells, including human non-small cell lung cancer cell strains (A549, H460), breast cancer cell strains (MCF-7, T-470), colorectal cancer cell strains (LoVo, SW480), and leukocytes cancer cell strains (HL-60, K562) (American Type Culture Collection, Manassas, Va.), were evaluated using WST-1 method. About 5×10^3 cells per well of each type of cancer cell strains were portioned into a 96-well plate, and incubated with different concentrations of each of the compounds PB01 and PB11 of Examples 5 and 3 in 200 ul of a culture solution for 24 hours, 48 hours, and 72 hours. After the incubation for the different durations, 10 ul of a WST-1 solution was added to each well, followed by incubation at about 37° C. for about 1 hour. Absorbance at 450 nm was measured to determine cell viability.
(Formazan colour is commonly taken as a measure of viable cells.)

Assay [6] concerns non-small cell lung cancer cells H460. The assay can be described thus: Sub-G1 phase cell number, propidium iodide flow cytometry. As to conditions: 50 μM, 48 hours. The format is cell-based, human. Here is the method: (§2) After incubation of the non-small cell lung cancer cells A549 and H460 treated with 50 μM of the compound PB01 or PB11 of Examples ?5 and 3 for 48 hours, the non-small cell lung cancer cells A549 and H460 were collected and floated with a 1×PBS (pH 7.4), followed by fixing at about −20° C. with a 70% cold ethanol, washing twice with a 1×PBS, and then staining with 10 μg/mL of propidium iodide (including 0.5% of PI, Tween-20, 100 μg/mL of 0.1% RNase) at room temperature for about 30 minutes. The stained cells were analyzed by flow cytometry with a FACScan™ (available from Becton Dicknson).

In assay [7] the test system is non-small cell lung cancer cells A549. Described as above. The format is cell-based, human. The settings on record: 50 μM, 48 hours. As for the experimental part: as §2
The test system of assay [8] is non-small cell lung cancer cell strain H460. The assay can be described thus: Apoptosis ratio, Annexin V flow cytometry. The class given is cell-based, human. The settings on record: about 40 hours, 50 μM PB01, 50 μM PB11, 150 μM PB12, FIGS. 9A and 9B. Here is the method:
(§3) About 5×10^5 cells per well of each of the non-small cell lung cancer cell strains A549 and H460 were portioned into a 6-well plate and then incubated with the compounds PB01 or PB11 for about 40 hours in the same manner as described above. A cell layer was washed with PBS and then treated with trypsin-EDTA solution to isolate cells. The isolated cells were collected and stained with an Annexin V Flous Staining kit (available Roche Applied Science, Penzberg, Germany) in a dark condition for about 30 minutes. The stained cells were analyzed by flow cytometry using a FACScan™ (available from Becton Dicknson) to count the number of dead cells and then calculate an apoptosis ratio. The same experiment was performed with 50 μM of PB01, 50 μM of PB11, or 150 μM of PB12 in the same manner as described above. The graphs of cell viability with respect to compound concentration and incubation time obtained based on the experimental results are shown in FIGS. 9A and 9B.
In general terms: Flow cytometry measures light scatter and fluorescence of single cells or particles in a stream.

Assay [9] concerns non-small cell lung cancer cell strain A549. The assay can be described thus: Apoptosis ratio, Annexin V flow cytometry. The class given is cell-based, human. As to conditions: 50 μM, about 40 hours, FIG. 9A. Here is the method:
as §3

As to `COC1CCC(C(=O)Nc2ccc3nc(SCc4c(C)noc4C)sc3c2)CC1` (stereo not drawn) [PB01], the PPAR-γ ligand identification result with 3T3-L1 cells is given as “found to be PPAR-γ ligands”. Moreover, in the assay on 3T3-L1 cells, the “ability to induce adipogenesis” value is listed as “outstanding ability to induce adipogenesis”. Besides, the morphological changes entry in [1] was “lose adhesion with reduced density”. In addition, the “amount of extracellular LDH released” value in assay [2] is listed as “increased with time”. Further, the “nuclear morphological changes (apoptotic bodies)” value in [3] and in assay [4] was “increased apoptotic bodies due to nuclear agglutination” each time. Also, in assay [5], the “selectivity of cell growth inhibitory effect, cancer versus non-cancer cell strains” value is “selectively only on cancer cell strains”. Besides, the “growth inhibitory effects on various cancer cell strains” value in assay [5] is “prominent”. In addition, the “number of sub-G1 phase cells” value in assay [6] and in assay [7] was “sharp increase” each time. Besides, the “apoptosis induction (Annexin V)” value in [8] and in assay [9] was “kill the non-small cell lung cancer cells by inducing apoptosis” in each case.
Consider `Cc1noc(C)c1CSc1nc2ccc(NC(=O)C3CCC(=O)CC3)cc2s1` [PB11], for which the PPAR-γ ligand identification result in the assay on 3T3-L1 cells is given as “found to be PPAR-γ ligands”. In addition, the “ability to induce adipogenesis” value with 3T3-L1 cells is given as “high activity in adipogenesis induction”. Besides, in assay [1], the morphological changes entry is on record as “lose adhesion with reduced density”. Moreover, in assay [2], the “amount of extracellular LDH released” value is “increased with time”. For the same molecule, the “nuclear morphological changes (apoptotic bodies)” value in assay [3] and in assay [4] was “increased apoptotic bodies due to nuclear agglutination” throughout. In addition, the “selectivity of cell growth inhibitory effect, cancer versus non-cancer cell strains” value in assay [5] was “selectively only on cancer cell strains”. Also, in assay [5], the “growth inhibitory effects on various cancer cell strains” value is recorded as “prominent”. Moreover, the “number of sub-G1 phase cells” value in [6] and in assay [7] was “sharp increase” each time. For the same molecule, the “apoptosis induction (Annexin V)” value in assay [8] and in assay [9] was “kill the non-small cell lung cancer cells by inducing apoptosis” each time.
